{"source": "patent US20080311126A1", "about": "“Antisense Oligonucleotides Directed to Ribonucleotide Reducatase R2 and Uses Thereof in Combination Therapies for the Treatment of Cancer” (Genesense Technologies, Inc, priority 2004, published 2008)", "type_in_all_cases": "in vivo", "key": {"[1]": {"test_system": "Hela S3 human cervix epitheloid carcinoma cells", "test": "Hela S3 hydroxyurea resistant cervix carcinoma xenograft in SCID mice", "description": "Hela S3 human cervix epitheloid carcinoma cells (5×10^5 cells in 100 μl of PBS) were subcutaneously injected into the right flank of 6-7 weeks old female SCID mice. Hela S3 is a hydroxyurea resistant cell line. After the size of tumour reached an approximate volume of 100 mm^3, 3 days post tumour cell injection, SEQ ID NO:1 was administered by bolus infusion into the tail vein every other day at 10 mg/kg 6 times. Control animals received saline alone for the same period. Antitumour effect of SEQ ID NO:1 was further compared to that of Hydroxyurea or Cisplatin alone or in combination. Hydroxyurea was administered intraperitoneally every day at a dose of 250 mg/kg for 10 days. Cisplatin was administered intravenously once a week for three weeks at a dose of 4 mg/kg. Antitumour activities were estimated by the inhibition of tumour volume, which was measured with caliper. Each point represents mean tumour volume calculated from 10 animals per experimental group. […] As expected, treatment with Hydroxyurea during the same period was ineffective against Hydroxyurea-resistant tumour."}, "[2]": {"test_system": "Caki-1 human renal carcinoma", "test": "Caki-1 renal tumour xenograft in SCID mice, SEQ ID NO:1 and interferon alpha", "description": "Cell Line: Human renal carcinoma cell line (Caki-1) was grown as monolayer culture in Minimum essential medium (α-MEM) supplemented with 10% fetal bovine serum (FEBS), 0.1 mM non-essential amino acid, 1.0 mM sodium pyruvate, 100 U/ml penicillin, 100 μg/ml streptomycin and 0.25 μg/ml amphotericin B and 2 mM L-alanyl-L-glutamine at 37° C. in an atmosphere of 5% CO2 in air. The tumour cells were routinely subcultured twice weekly by trypsin-EDTA treatment. The cells were harvested from subconfluent logarithmically growing culture by treatment with trypsin-EDTA and counted for tumour inoculation.\nTumour Inoculation: An acclimation period of at least 7 days was allowed between animal receipt and commencement of tumour inoculation. When the female SCID mice were 6-7 weeks of age (20-25 g), each mouse was subcutaneously (s.c.) injected with 5×10^6 Caki-1 human renal carcinoma cells in 0.1 ml of PBS at the right flank of the mice to induce tumour growth.\nDose-Preparation and Treatment: The dose for SEQ ID NO:1 was formulated using the following procedure. From a concentrated stock solution (usually prepared in ddH2O at a concentration of 50 mg/ml and kept at −80° C.), SEQ ID NO:1 was diluted with saline to achieve a final target concentration of 1 or 2.5 mg/ml on the first day of dosing. Enough SEQ ID NO:1 was diluted so that the compound could be administered by bolus infusion into the tail vein every other day for the duration of the experiment. Recombinant interferon alfa-2b (Intron A™) was utilized according to the dose and treatment schedules below. The treatments were started 7 days after the tumour cell inoculation when the tumour size reached an approximate volume of 125 mm^3. Each treatment group contained 10 tumour-bearing mice. Routes of administration are indicated as follows: intravenous (i.v.) and intratumoural (i:t.).\nGroups and Treatments: The following treatment groups were evaluated: • 1. Saline treated group-1: saline 0.1 ml/mouse/48 hours, i.v., n=10 • 2. Saline treated group-2: saline 0.05 ml/mouse/5 days/week, i.t., n=10 • 3. […] Intron A 10^3 unit/5 days/week treated group: 10^3 unit Intron A in 0.05 ml saline, i.t., n=10 • 6. Intron A 10^5 unit/5 days/week treated group: 10^5 unit Intron A in 0.05 ml saline, i.t., n=10 • 7. SEQ ID NO:1 1 mg/kg Plus Intron A 10^3 treated group: “3+5”, n=10 • 8. SEQ ID NO:1 1 mg kg Plus Intron A 10^5 treated group: “3+6”, n=10 • 9. SEQ ID NO:1 2.5 mg/kg Plus Intron A […], n=10 • 10. SEQ ID NO:1 2.5 mg/kg Plus Intron A 10^5 treated group: “4+6”, n=10\nMice received 25 treatments with SEQ ID NO:1 and 30 treatments with Intron A. The dosing schedule for Intron A was: treatment with Intron A for 3 consecutive weeks, 1 week off, and treatment with Intron A again for another 3 consecutive weeks. The dosing schedule for SEQ ID NO:1 was treatment with SEQ ID NO:1 every other day for the duration of the experiment.\n(§1) Endpoints: The effects of SEQ ID NO:1 and Intron A on tumour growth were determined. Tumour sizes were measured every week from day 7 after the tumour cell inoculation in two dimensions using a caliper, and the volume was expressed in mm^3 using the formula: V=0.5 a×b^2, where a and b are the long and short diameters of the tumour, respectively. Mean tumour volumes calculated from each measurement were then plotted in a standard graph to compare the anti-tumour efficacy to that of controls. A day after the last treatment, tumours were excised from the animals and their weights were measured.\nA second independent in vivo study was conducted as described in Example 1 utilizing SCID mice (female, 6 weeks old) and Caki-1 (human renal carcinoma cell line) to test the efficacy of SEQ ID NO:1 in combination with IFN alpha Briefly, 5×10^6 Caki-1 human renal carcinoma cells in 0.1 ml of PBS were injected subcutaneously at the right flank of the mice to induce tumour growth. Treatments started on the seventh day after tumour cell injection. […]"}, "[3]": {"test_system": "A498 human renal carcinoma", "test": "A498 renal tumour xenograft in SCID mice, SEQ ID NO:1 and interferon alpha", "description": "Cell line: Human renal carcinoma cell line (A498) was grown as monolayer culture in Minimum essential medium (α-MEM) supplemented with 10% fetal bovine serum (FBS), 0.1 mM non-essential amino acid, 1.0 mM sodium pyruvate, 100 U/ml penicillin, 100 μg/ml streptomycin and 0.25 μg/ml amphotericin B and 2 mM L-alanyl-1-glutamine at 37° C. in an atmosphere of 5% CO2 in air. The tumour cells were routinely subcultured twice weekly by trypsin-EDTA treatment. The cells were harvested from subconfluent logarithmically growing culture by treatment with trypsin-EDTA and counted for tumour inoculation.\nTumour Inoculation: An acclimation period of at least 7 days was allowed between animal receipt and commencement of tumour inoculation. When the female SCID mice were 6-7 weeks of age (20-25 g), each mouse was subcutaneously injected with 9×10^6 A498 human renal carcinoma cells in 0.1 ml of PBS at the right flank of the mice to induce tumour growth.\nDose Preparation and Treatment: The dose for SEQ ID NO:1 was formulated using the following procedure. From a concentrated stock solution (usually prepared in ddH2O at a concentration of 50 mg/ml and kept at −80° C.), SEQ ID NO:1 was diluted with saline to achieve a final target concentration of 1 or 2.5 mg/ml on the first day of dosing. Enough SEQ ID NO:1 was diluted so that the compound could be administered by bolus infusion into the tail vein every other day for the duration of the experiment. Recombinant interferon alfa-2b (ntron A™) was employed according to the dose and treatment schedules below. The treatments were started 20 days after the tumour cell inoculation when the tumour size reached an approximate volume of 200 mm^3. Each treatment group contained 10 tumour-bearing mice. Routes of administration are as follows: intravenous (i.v.) and intratumoural (i.t.).\n• 1. Saline treated group-1: saline 0.1 ml/mouse/48 hours, i.v., n=10 • 2. Saline treated group-2: saline 0.05 ml/mouse/5 days/week, i.t., n=10 • 3. SEQ ID NO:1 treated group: 1 mg/kg/48 hours in 0.1 ml saline, i.v. n=10 • 4. SEQ ID NO:1 treated group: 2.5 mg/kg/48 hours in 0.1 ml saline, i.v., n=10 • 5. […]\nTreatment started from day 20 after inoculation of human renal tumour cells. […]\nas §1, with “growth was” for “growth were”, “day 20” for “day 7”, “measured. […]” for “measured.”"}, "[4]": {"test_system": "MDA-MB-231 human breast cancer cells", "test": "MDA-MB-231 breast tumour xenograft in CD-1 nude mice", "description": "MDA-MB-231 human breast cancer cells (1×10^7 cells in 100 μl of PBS) were subcutaneously injected into the right flank of 6-7 weeks old female CD-1 nude mice. After the size of tumour reached an approximate volume of 100 mm^3, 5 days post tumour cell injection, SEQ ID NO:1, or the scrambled control oligonucleotide (SEQ ID NO:3) were administered by bolus infusion into the tail vein every other day at 10 mg/kg. Control animals received saline alone for the same period. Antitumour effect of SEQ ID NO:1 was further compared to that of taxol or doxorubicin alone or in combination. Taxol was administered intravenously once a week at a dose of 10 mg/kg for three (FIG. 17A) or four weeks (FIG. 17C). Doxorubicin was administered intravenously once a week at a dose of 5 mg/kg for first three weeks (FIG. 17A) or for two weeks (FIG. 17C). All treatments were stopped at day 33 (FIG. 17A) or at day 26 (FIG. 17C), respectively. A day after the last treatment, tumours were excised from the animals and their weights were measured. […] In FIG. 17C, antitumour activities were estimated by the inhibition of tumour volume, which was measured with calipers. Each point represents mean tumour volume calculated from 10 animals per experimental group."}, "[5]": {"test_system": "Caki-1 human renal cancer cells", "test": "Caki-1 renal tumour xenograft in SCID mice, SEQ ID NO:1 and chemotherapeutics", "conditions": "Caki (renal); Mouse CD-1", "description": "Caki-1 human renal cancer cells (1×10^7 cells in […] of PBS) were subcutanteously injected into the right flank of 6-7 weeks old female SCID mice. After the size of tumour reached an approximate volume of 200 mm^3, 7 days post tumour cell injection, SEQ ID NO:1 was administered by bolus infusion into the tail vein every other day at 10 mg/kg. Control animals received saline alone for the same period. The antitumour effect of SEQ ID NO:1 was further compared to that of two chemotherapeutic agents: 5-FU and vinblastine. 5-FU was administered intraperitoneally at days 7-13, 21-27 and 35-36 with a dose of 13 mg/kg/day, while vinblastin was administered intraperitoneally at days 7, 14, 21, 28 and 35 at a dose of 0.6 mg/kg/week. Antitumour effects of each of these compounds were further compared to those of SEQ ID NO:1 in combination with 5-FU or with vinblastin. The two chemotherapeutic agents were applied as described above, one hour after the treatments with SEQ ID NO:1 when combination treatments occurred on the same day. All treatments were stopped at day 36. A day after the last treatment, tumours were excised from the animals and their weights were measured."}, "[6]": {"conditions": "Example 4, oligonucleotide 2.5 mg/kg every 2 days i.v., Intron A 10^5 unit 5 days/week i.t."}}, "note": "“Also recorded” adds a separate entry of the source."}
{"molecule": "NC(=O)NO", "note": "[Hydroxyurea (HU), Hydroxyurea, reference compound]", "values": [{"measurement": "Tumour weight as % of saline control", "setting": "[1]; Hela S3 (cervix), hydroxyurea resistance, SCID", "value": 92, "unit": "%"}, {"measurement": "antitumour effect (tumour volume)", "setting": "[1]; SEQ ID NO:1 10 mg/kg 6 times, Hydroxyurea 250 mg/kg i.p. 10 days, Cisplatin 4 mg/kg i.v. weekly", "value": "ineffective"}]}
{"molecule": "Recombinant interferon alfa-2b [Intron A]", "values": [{"measurement": "anti-tumour efficacy (tumour volume, tumour weight)", "setting": "[2]; Example 2, SEQ ID NO:1 1 or 2.5 mg/kg/48 hours i.v., Intron A 10^3 or 10^5 unit 5 days/week i.t.", "value": "significant anti-tumour efficacy"}, {"measurement": "anti-tumour efficacy (tumour volume, tumour weight)", "setting": "[2]; Example 3, SEQ ID NO:1 2.5 or 5 mg/kg every 2 days i.v., Intron 10^5 unit 5 days/week i.t.", "value": "significant anti-tumour efficacy"}, {"measurement": "anti-tumour efficacy (tumour volume, tumour weight)", "setting": "[2]; [6]", "value": "significant anti-tumour efficacy"}, {"measurement": "efficacy in combination with SEQ ID NO:1, subcutaneous versus intratumoural", "setting": "[2]; Example 5, SEQ ID NO:1 2.5 mg/kg/2 days i.v. plus 100000 units Intron A x3/week s.c. or i.t.", "value": "equally effective"}, {"measurement": "anti-tumour efficacy (tumour volume, tumour weight)", "setting": "[3]; Example 6, SEQ ID NO:1 1 or 2.5 mg/kg/48 hours i.v., Intron A 10^3 or 10^5 unit 5 days/week i.t.", "value": "significant anti-tumour efficacy"}, {"measurement": "anti-tumour efficacy (tumour volume, tumour weight)", "setting": "[3]; Example 7, SEQ ID NO:1 2.5 mg/kg/2ds i.v., 10000 units Intron A x5/week for 2 weeks i.t.", "value": "significant anti-tumour efficacy"}]}
{"molecule": "COc1cccc2c1C(=O)c1c(O)c3c(c(O)c1C2=O)C[C@@](O)(C(=O)CO)C[C@@H]3O[C@H]1C[C@H](N)[C@H](O)[C@H](C)O1", "note": "[Doxorubicin]", "values": [{"measurement": "Tumour weight as % of saline control", "setting": "[4]; MDA-MB-231 (breast), Mouse CD-1", "value": 41, "unit": "%"}]}
{"molecule": "O=c1[nH]cc(F)c(=O)[nH]1", "note": "[5-FU, 5-fluorouracil, reference compound]", "values": [{"measurement": "Tumour weight as % of saline control", "setting": "[5]", "value": 52, "unit": "%"}]}
{"molecule": "ACGCACTCAGCTAGTGACAC (listed as DNA, chemistry not given here) [SEQ ID NO:3, reference compound]", "values": [{"measurement": "effect on the efficacy of Intron A", "setting": "[2]; Example 4, SEQ ID NO:3 2.5 mg/kg plus Intron A 10^5", "value": "did not improve the efficacy of Intron A"}, {"measurement": "anti-tumour efficacy (tumour volume, tumour weight)", "setting": "[2]; [6]", "value": "no efficacy as a monotherapy"}, {"measurement": "antitumour effect (tumour weight, tumour volume)", "setting": "[4]; oligonucleotide 10 mg/kg every other day i.v., taxol 10 mg/kg, doxorubicin 5 mg/kg i.v. once a week", "value": "no significant anti-tumour activity as a monotherapy; also recorded: does not cooperate with doxorubicin"}]}
